Assay results taken from patent US20160039936A1, “FIBROBLAST GROWTH FACTOR RECEPTOR INHIBITION FOR THE TREATMENT OF DISEASE” (UNIVERSITY OF MIAMI, priority 2011, published 2016).

Legend:
[1] = tested on: FGFR; conditions: Hagel M et al 2015; cited from earlier work
[2] = tested on: isolated NRVM; test: Cross-sectional area (hypertrophy) of isolated NRVM with receptor antagonists (Example 4); assay type: cell-based, rat; conditions: NRVM 48 h, PD173074 10 nM, AZD4547 5 nM, anti-FGFR4 10 μg/ml
Protocol: NRVM were isolated using a standard isolation system (Worthington Biochemical Corporation) (Faul et al., 2011). Hearts from 1-2 day old Sprague Dawley rats were harvested, minced in calcium-and magnesium-free Hank's Balanced Salt Solution (HBSS), and the tissue digested with 50 μg/ml trypsin at 4° C. for 20-24 hours. Soybean trypsin inhibitor in HBSS was added, and the tissue was further digested with collagenase (in Leibovitz L-15 medium) under slow rotation (15 rpm) at 37° C. for 45 minutes. Cells were released by triturating the suspension 20 times with a standard 10 ml plastic serological pipette and filtering it twice through a cell strainer (70 μm, BD Falcon). Cells were incubated at room temperature for 20 minutes and spun at 100 g for 5 minutes. The cell pellet was resuspended in plating medium [Dulbecco's Modified Eagle Medium (DMEM; Cellgro) with 17% Media 199 (Invitrogen), 15% fetal bovine serum (FBS; Invitrogen) and 1% penicillin/streptomycin solution (P/S; Invitrogen)]. Cells were counted using a hemocytometer.
Cells were plated on glass and plastic surfaces, which were coated with laminin (Invitrogen; 10 μg/ml in PBS) at room temperature for 1 hour prior to plating. For immunofluorescence analysis, 3×10^5 cells were seeded per well on glass coverslips in 24-well plates. For Western blot or qPCR analyses of total extracts, 1×10^6 cells were seeded per well in 6-well plates, and for immunoprecipitation assays, 5×10^6 cells were seeded in 10 cm-culture dishes. Cells were left undisturbed in plating medium at 37° C. for 72 hours and then cultured in maintenance medium (DMEM with 20% Media 199, 1% insulin-transferrin-sodium selenite solution [ITS; Sigma-Aldrich] and 1% P/S) in the presence of 100 μM 5-bromo-2′-deoxyuridine (BrdU; Sigam-Aldrich). After 4 days, isolated cardiac myocytes were cultured in BrdU-containing maintenance medium in the presence of recombinant murine FGF23 or FGF2 (both at 25 ng/ml) for different time points.
Cultured cells were fixed in 2% PFA (in 5 mg/ml sucrose) for 5 minutes and permeabilized in 1% Triton X-100 (in PBS) for 10 minutes. We analyzed hypertrophic growth of isolated NRVM and NMVM on laminin-coated glass coverslips after 48 hours of treatment with growth factors. For FGFR4 expression and localization analyses, untreated NMVM from wild-type and FGFR4^−/− mice were immunolabeled. The mouse monoclonal antibody against sarcomeric α-actinin (EA-53; Sigma-Aldrich) was used at 1:1,000, and rabbit polyclonal anti-FGFR4 (C-16; Santa Cruz) at 1:50. Cy3-conjugated goat-anti mouse and Alexa488-conjugated goat-anti rabbit (Jackson Immuno Research) were used as secondary antibodies at 1:300. To visualize nuclei, fixed cells were incubated with 4′,6-diamidino-2-phenylindole (DAPI; 400 ng/ml in PBS) for 10 minutes. Immunofluorescence images were taken on a Leica TCS-SP5 confocal microscope with a 63× oil objective.
Myocyte cross-sectional area was measured based on α-actinin-positive staining using Leica AF6000 fluorescence software. To assess the signaling pathways involved in FGF23- and FGF2-mediated hypertrophy, we analyzed the morphometry of plated cells that were pre-treated with specific inhibitors for 60 minutes prior to the addition of the FGFs at 25 ng/ml (NRVMs) or at 100 ng/ml (NMVMs). The following inhibitors and concentrations were used: pan-FGFR, PD173074 (Sigma-Aldrich) at 10 nM; FGFR1-3, AZD4547 (ChemieTek) at 5 nM; and FGFR4 blocking antibody (human monoclonal, U3-11; U3Pharma) at 10 μg/ml.

Molecule | FGFR4 inhibition [1] | FGF2-induced hypertrophy (cross-sectional area) with receptor antagonist ([2]; FGF2 25 ng/ml) | FGF23-induced hypertrophy (cross-sectional area) with receptor antagonist ([2]; FGF23 25 ng/ml)
C=CC(=O)Nc1cccc(C)c1Nc1ncc2cc(-c3c(Cl)c(OC)cc(OC)c3Cl)ccc2n1 [BLU9931] | very potent and selective |  | 
AZD4547 |  | prevented | but not FGF23-induced hypertrophy
